What was measured:
MDA-MB-453 cells = assay: Measurement of lipid peroxidation (BODIPY C11, flow cytometry); assay type: cell-based, human; settings: with RSL3
Description: (§1) FIG. 2 A-E. mTORC1, instead of mTORC2, suppresses ferroptosis. (A) MDA-MB-453 and BT474 were treated with CCI-779 (0.5 μM), RSL3 (1 μM for MDA-MB-453 cells and 0.5 μM for BT474 cells), and Fer-1 (1 μM) as indicated. (B) Cells were seeded in 6-well plate, 4×10^5 cells per well and incubated overnight. MDA-MB-453 and BT474 cells were treated as indicated. CCI-779, 0.5 μM; RSL3, 1 μM for MDA-MB-453 cells and 0.5 μM for BT474 cells; Fer-1, 1 μM. Cells were stained with 5 μM C1I-BODIPY followed by flow cytometry after 8 h-treatment. (C) 3D spheroids were treated as indicated. CCI-779, 0.5 μM; RSL3, 0.5 μM; Fer-1, 1 μM. Top panel, dead cells were stained by SYTOX Green (scale bar, 100 μm). Bottom panel, cell viability was assayed by measuring cellular ATP levels. (D) Cells expressing shRNAs targeting RPTOR or RICTOR were treated as indicated. CCI-779, 0.5 μM; RSL3, 0.5 μM; Fer-1, 1 μM. (E) Lipid peroxidation of samples as in panel D were measured.
(§2) FIG. 7 A-J. PI3K-AKT-mTOR signaling regulates ferroptosis sensitivity. (A) Cells were treated as indicated. GDC-0941, 2 μM; MK-2206, 2 μM; RSL3, 1 μM; Fer-1, 1 μM. Lipid peroxidation was measured. (B) Cells were treated with indicated conditions. Torin, 1 μM; RSL3, 1 μM for MDA-MB-453 cells and 0.5 μM for BT474 cells; Fer-1, 1 μM. Cell death was measured. (C) Cells were treated with indicated conditions. RSL3, 10 μM for MCF cells and PC-3 cells, 5 μM for T47D cells, 1 μM for HepG2 cells; Torin, 1 μM; CCI-779, 0.5 μM. (D) Cells were treated as indicated. CCI-779, 0.5 μM; Torin, 1 μM; Fer-1, 1 μM. Cell death was staining by propidium iodide (PI) (red) or Sytox Green (green) (scale bar, 100 μm). (E-F) 3D spheroids for MDA-MB-453 cells and MCF7 cells were treated as indicated. CCI-779, 0.5 μM; RSL3, 1 μM for MDA-MB-453 cells and 5 μM for MCF7 cells; Fer-1, 1 μM. Top panels, cell death staining (scale bar, 100 m). Bottom panels, cell viability. (G) MDA-MB-453 cells were treated as indicated for 24 h. RSL3, 1 μM; CCI-779, 0.5 μM; GDC-0941, 2 μM; MK-2206, 2 μM; Dabrafenib, 2 μM; SCH772984, 2 μM; Fer-1, 1 μM. (H) Western blot was performed to detect RPTOR and RICTOR knockdown efficiency. (I) HT1080 cells and MDA-MB-231 cells (both with wild-type PI3K-AKT-mTOR pathway) were treated as indicated. RSL3, 0.1 μM for HT1080 and 0.25 μM for MDA-MB-231; Torin, 1 μM; CCI-779, 0.5 μM; Fer-1, 1 μM. Cell death was measured. (J) Two lines of PI3K-AKT-mTOR pathway wild-type cells (HT1080 and MDA-MB-231) and two lines of cells harboring activating mutation of the pathway (BT474 and MDA-MB-453) were treated as indicated. RSL3, 0.25 μM; Fer-1, 1 μM. Western blot was performed to detect the level of pT389 S6K.
(§3) FIG. 11 A-H. SCD1 protects cells against ferroptosis. (A) Cells were pretreated cells with 5 μM CAY10566 overnight. Cells were treated as indicated. RSL3, 1 μM for MDA-MB-453 and 0.5 μM for BT474; Fer-1, 1 μM; CAY10566, 5 μM; Fer-1, 1 μM. (B) Western blot, measuring the SCD knockout efficiency in BT474, MDA-MB-453 and MCF7 cells. (C) MCF cells (sgCtrl, sgSCD #1 and sgSCD #2) were treated as indicated. RSL3, 5 μM; Fer-1, 1 μM. (D) Cells were treated as indicated. RSL3, 1 μM for MDA-MB-453 cells and 0.5 μM for BT474 cells; Fer-1, 1 μM. (E) Cells were treated as indicated. RSL3, 1 μM for MDA-MB-453 cells and 0.5 μM for BT474 cells; Fer-1, 1 μM; CCI-779, 0.5 μM; GDC-0941, 2 μM; MK-2206, 2 μM. (F) SCD1 was overexpressed in BT474 cells. Cells were treated as indicated. RSL3, 0.5 μM; CCI-779, 0.5 μM. Lipid peroxidation was measured. (G) SCD1 was overexpressed in A549 cells and determined by western blot. Cells were treated as indicated. RSL3, 0.25 μM; CCI-779, 0.5 μM. Lipid peroxidation and cell death were measured 6 h and 24 h after treatment, respectively. (H) SCD1 was overexpressed in BT474 cells harboring SREBF1 knockout. SCD1 and SREBP1 level were determined by western blot. Cells were treated as indicated. RSL3, 0.5 μM; CCI-779, 0.5 μM; Fer-1, 1 μM.
(§4) Lipid peroxidation was analyzed by flow cytometry. […]

BT474 cells = assay: as above; assay type: cell-based, human; settings: with RSL3
Description: as §1, §2, §3, §4

| Compound | sensitization to lipid peroxidation (MDA-MB-453 cells) | sensitization to lipid peroxidation (BT474 cells) |
| --- | --- | --- |
| CCCc1cc(-c2nc(-c3ccc(C)cc3)cs2)ccn1 [Fatostatin A] | sensitized | sensitized |
| NC1(c2ccc(-c3nc4ccn5c(=O)[nH]nc5c4cc3-c3ccccc3)cc2)CCC1 [MK-2206] | sensitized | sensitized |
| CS(=O)(=O)N1CCN(Cc2cc3nc(-c4cccc5[nH]ncc45)nc(N4CCOCC4)c3s2)CC1 [GDC-0941] | sensitized | sensitized |
| CO[C@H]1C[C@@H]2CC[C@@H](C)[C@@](O)(O2)C(=O)C(=O)N2CCCC[C@H]2C(=O)O[C@H]([C@H](C)C[C@@H]2CC[C@@H](OC(=O)C(C)(CO)CO)[C@H](OC)C2)CC(=O)[C@H](C)/C=C(\C)[C@@H](O)[C@@H](OC)C(=O)[C@H](C)C[C@H](C)/C=C/C=C/C=C/1C [CCI-779, Temsirolimus] | sensitize | sensitize |
| Cc1nnc(-c2ccc(N3CCC(Oc4cc(F)ccc4Cl)CC3)nn2)o1 [CAY10566] | sensitized the effect of RSL3 | sensitized the effect of RSL3 |
